Experimental data as given in patent US8835395B2, “Protein peptide hydrogels” (Kansas State University Research Foundation, priority 2010, dated 2014).
Where a SMILES comes first, the peptide text is derived from it.

Assay: Solubility of peptide in neutral water
Format: physicochemical
Conditions: neutral water without any pH adjustment

CC[C@H](C)[C@H](NC(=O)[C@H](CC(C)C)NC(=O)[C@@H](N)Cc1ccccc1)C(=O)N[C@H](C(=O)N[C@H](C(=O)N1CCC[C@H]1C(=O)N1CCC[C@@H]1C(=O)NCC(=O)N1CCC[C@H]1C(=O)NCC(=O)NCC(=O)N[C@@H](CC(=O)O)C(=O)NCC(=O)N1CCC[C@H]1C(=O)NCC(=O)NCC(=O)N[C@@H](CC(=O)O)C(=O)O)[C@@H](C)CC)C(C)C [h5PP^De, FLIVI-PP^D-GPGGDGPGGD] (HELM PEPTIDE1{F.L.I.V.I.P.[dP].G.P.G.G.D.G.P.G.G.D}$$$$V2.0)
Solubility in water: soluble
